28 compounds from patent publication US8269043B2, “Bicyclic aryl sphingosine 1-phosphate analogs” (Biogen Idec MA Inc., priority 2008, dated 2012) can be followed below.

Bounds are passed on as bounds.

The target of one experiment is T1, human S1P3 receptor (Homo sapiens, UniProt Q99500).
T1 construct: host or cells: recombinant CHEM cells
T1 sequence (Q99500 whole entry): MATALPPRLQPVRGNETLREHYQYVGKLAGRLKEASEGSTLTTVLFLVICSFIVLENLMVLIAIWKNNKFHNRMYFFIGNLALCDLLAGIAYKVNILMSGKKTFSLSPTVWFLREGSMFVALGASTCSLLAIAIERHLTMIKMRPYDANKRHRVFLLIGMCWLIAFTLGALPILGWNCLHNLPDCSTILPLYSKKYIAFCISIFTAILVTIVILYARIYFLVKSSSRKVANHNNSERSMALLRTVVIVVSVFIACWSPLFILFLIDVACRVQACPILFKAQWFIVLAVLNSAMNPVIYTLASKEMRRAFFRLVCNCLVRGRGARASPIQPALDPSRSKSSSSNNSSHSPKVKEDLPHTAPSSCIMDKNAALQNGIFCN
Nature of the experiment: Calcium mobilization assay, agonist activity at human S1P3. The format is cell-based. The conditions noted are these: recombinant CHEM cells expressing human S1P3, FLIPR Calcium 4 dye (FIG. 9, FIG. 11). On the procedure: (§1) Compounds that were not specific for the S1P, receptor, can have activity for other S1P receptor subtypes, e.g., S1P2, S1P3, S1P4, or S1P5, and can cause undesirable side effects. Accordingly, compounds were tested to identify those that were specific for S1P1 activity and had little or no activity, or are antagonists of, S1P3 activity. Accordingly, the test compounds were tested in a calcium mobilization assay to determine agonist activity at either the human S1P1 or human S1P3 receptor, and antagonist activity only at the human S1P3 receptor. The procedure was essentially as described (with modifications described below) in Davis et al. (2005) Journal of Biological Chemistry, vol. 280, pp. 9833-9841, which is incorporated by reference in its entirety. Calcium mobilization assays were performed in recombinant CHEM cells expressing human S1P1 or S1P3 purchased from Millipore (Billerica, Mass.). To detect free intracellular calcium, S1P1 or S1P3 cells were loaded with FLIPR Calcium 4 dye from Molecular Devices (Sunnyvale, Calif.). Cells were imagined for calcium mobilization using a FLIPR^TETRA equipped with a 96-well dispense head.
For the compound `COc1ccc2cc([C@H](C)COC(N)=O)ccc2c1` [Example 2, carbamic acid (S)-2-(6-methoxy-naphthalen-2-yl)-propyl ester], the S1P3 agonist activity result is recorded as “no activity was seen”.
Still for that read-out and setting: for `CCCCCCCCCCCCC/C=C/[C@@H](O)[C@@H](N)COP(=O)(O)O` [Example S1P, Sphingosine 1-phosphate] the value was “full S1P3 agonist”.

For a further experiment, the target named is T2, human S1P1 (Homo sapiens, UniProt P21453).
T2 construct: host or cells: recombinant CHEM cells
T2 sequence (P21453 whole entry): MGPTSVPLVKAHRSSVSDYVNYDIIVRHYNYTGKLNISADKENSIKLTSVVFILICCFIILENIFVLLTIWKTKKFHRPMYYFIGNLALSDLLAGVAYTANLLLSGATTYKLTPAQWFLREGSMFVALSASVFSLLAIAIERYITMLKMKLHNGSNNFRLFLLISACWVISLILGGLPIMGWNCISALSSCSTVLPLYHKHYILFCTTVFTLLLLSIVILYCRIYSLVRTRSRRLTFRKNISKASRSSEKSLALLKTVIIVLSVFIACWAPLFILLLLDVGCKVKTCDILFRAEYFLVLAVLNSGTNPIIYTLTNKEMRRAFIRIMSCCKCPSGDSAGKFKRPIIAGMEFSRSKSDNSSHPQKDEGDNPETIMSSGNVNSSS
The experiment in a line: Calcium mobilization assay, agonist activity at human S1P1. The format is cell-based. The conditions noted are these: recombinant CHEM cells expressing human S1P1, FLIPR Calcium 4 dye (FIG. 8, FIG. 11). On the procedure: as §1
As to `CC(C)(C)[C@H]1CC[C@H](Oc2ccc3cc(C(N)(COP(=O)(O)O)COP(=O)(O)O)ccc3c2C(F)(F)F)CC1` [Example 61A, 2-amino-2-[6-(trans-4-tert-butylcyclohexyloxy)-5-trifluoromethyl-naphthalen-2-yl]-propane-1,3-diphosphoric acid], the S1P1 agonist activity entry is on record as “agonists of the S1P, receptor, with potencies similar to S1P”.

The next experiment deals with circulating lymphocytes. Nature of the experiment: Lymphopenia assay: circulating lymphocytes after oral gavage. Type of experiment: in vivo. The conditions noted are these: C57bl/6 male mice, oral gavage 0.5 and 5 mg/kg in 30% HPCD, blood 5 and 24 hours after administration. On the procedure:
Measurement of circulating lymphocytes: Compounds were dissolved in 30% HPCD. Mice (C57bl/6 male, 6-10 week-old) were administered 0.5 and 5 mg/kg of a compound via oral gavage. 30% HPCD was included as a negative control.
Blood was collected from the retro-orbital sinus 5 and 24 hours after drug administration under short isoflurane anesthesia. Whole blood samples were subjected to hematology analysis. Peripheral lymphocyte counts were determined using an automated analyzer (HEMAVET™ 3700). Three mice were used to assess the lymphocyte depletion activity of each compound screened.
Compounds of formula (I) induced full lymphopenia at times as short as 3 hours or less to as long as 48 hours or more; for example, 4 to 36 hours, or 5 to 24 hours. In some cases, a compound of formula induced full lymphopenia at 5 hours and partial lymphopenia at 24 hours. The dosage required to induce lymphopenia can be in the range of, e.g., 0.001 mg/kg to 100 mg/kg; or 0.01 mg/kg to 10 mg/kg. The dosage can be 10 mg/kg or less, such as 5 mg/kg or less, 1 mg/kg or less, or 0.1 mg/kg or less
On to “(R)-2-Amino-2-[6-(cis-4-pentyl-cyclohexyloxy)-naphthalen-2-yl]-propan-1-ol and (R)-2-Amino-2-[6-(trans-4-pentyl-cyclohexyloxy)-naphthalen-2-yl]-propan-1-ol [Example 272]”, for which the “Lymphopenia (ED50 mg/kg)” value is <0.5 mg/kg.
“(R)-2-amino-2-(6-(3-(benzyloxy)phenylthio)naphthalen-2-yl)propan-1-ol [Example 155]”: the “Lymphopenia (ED50 mg/kg)” value is reported as <0.5 mg/kg.
“(R)-2-amino-2-(6-((1R,2R,4S)-bicyclo[2.2.1]heptan-2-yloxy)naphthalen-2-yl)propan-1-ol [Example 105]”: the “Lymphopenia (ED50 mg/kg)” value is given as >5 mg/kg.

Staying with this experiment, now noted: Mus musculus, Lymphocyte, po, C57bl/6 male mice, oral gavage 0.5 and 5 mg/kg in 30% HPCD, blood 5 and 24 hours after administration.
For the compound `CC(C)(C)[C@H]1CC[C@H](Oc2ccc3cc([C@@](C)(N)CO)ccc3c2-c2ccccc2)CC1` [Example 229, (R)-2-amino-2-(6-(trans-4-tert-butylcyclohexyloxy)-5-phenylnaphthalen-2-yl)propan-1-ol], the ED50 – broadly, the midpoint of the dose-response relation – was > 5 mg/kg.
The same measure, in the same setting: the figure for `CC(C)(C)[C@H]1CC[C@H](Oc2ccc3cc([C@@](C)(N)CO)ccc3c2-c2cccc(Cl)c2)CC1` [Example 231, (R)-2-amino-2-(6-(trans-4-tert-butylcyclohexyloxy)-5-(3-chlorophenyl)naphthalen-2-yl)propan-1-ol] is > 5 mg/kg; for `CC(C)(C)[C@H]1CC[C@H](Oc2ccc3cc([C@@](C)(N)CO)ccc3c2-c2ccc(Cl)cc2)CC1` [Example 233, (R)-2-amino-2-(6-(trans-4-tert-butylcyclohexyloxy)-5-(4-chlorophenyl)naphthalen-2-yl)propan-1-ol] it is > 5 mg/kg; for `CC(C)(C)[C@H]1CC[C@H](Oc2ccc3cc([C@@](C)(N)CO)ccc3c2Cl)CC1` [Example 236, (R)-2-amino-2-(6-(trans-4-tert-butylcyclohexyloxy)-5-chloronaphthalen-2-yl)propan-1-ol] it is < 0.5 mg/kg.
On the same count and under the same terms, for `CC(C)(C)[C@H]1CC[C@H](Oc2ccc3cc([C@@](C)(N)CO)ccc3c2Br)CC1` [Example 237, (R)-2-amino-2-(5-bromo-6-(trans-4-tert-butylcyclohexyloxy)naphthalen-2-yl)propan-1-ol] the value was < 0.5 mg/kg; for `CC(C)(C)[C@H]1CC[C@H](Oc2ccc3cc([C@]4(C)COC(=O)N4)ccc3c2)CC1` [Example 238, (R)-4-(6-(trans-4-tert-butylcyclohexyloxy)naphthalen-2-yl)-4-methyloxazolidin-2-one], < 0.5 mg/kg; for `CC(C)(C)[C@H]1CC[C@H](Oc2c(Cl)c(Cl)c3cc([C@@](C)(N)CO)ccc3c2Cl)CC1` [Example 240, (R)-2-amino-2-(6-(trans-4-tert-butylcyclohexyloxy)-5,7,8-trichloronaphthalen-2-yl)propan-1-ol], > 5 mg/kg.
The same measure, in the same setting: the figure for `CC(C)(C)[C@H]1CC[C@H](Oc2ccc3cc([C@@](C)(N)CO)ccc3c2F)CC1` [Example 242, (R)-2-amino-2-(6-(trans-4-tert-butylcyclohexyloxy)-5-fluoronaphthalen-2-yl)propan-1-ol] is < 0.5 mg/kg.
As for `NC(CO)(CO)c1ccc2cc(Oc3ccc(Oc4ccccc4)cc3)ccc2c1` [Example 245, 2-amino-2-(6-(4-phenoxyphenoxy)naphthalen-2-yl)propane-1,3-diol], the ED50 was < 0.5 mg/kg.
On the same count and under the same terms, the figure for `NC(CO)(CO)c1ccc2cc(Oc3ccc(OCc4ccccc4)cc3)ccc2c1` [Example 248, 2-amino-2-(6-(4-(benzyloxy)phenoxy)naphthalen-2-yl)propane-1,3-diol] is < 0.5 mg/kg; for `CCCCCOc1ccc(Oc2ccc3cc(C(N)(CO)CO)ccc3c2)cc1` [Example 251, 2-amino-2-(6-(4-(pentyloxy)phenoxy)naphthalen-2-yl)propane-1,3-diol] it is < 0.5 mg/kg; for `C[C@](N)(CO)c1ccc2cc(O[C@H]3CC[C@@H](C(F)(F)F)CC3)ccc2c1` [Example 259, (R)-2-Amino-2-[6-(cis-4-trifluoromethyl-cyclohexyloxy)-naphthalen-2-yl]-propan-1-ol] it is 0.5 to 5 mg/kg.
The compound `C[C@](N)(CO)c1ccc2cc(O[C@H]3CC[C@H](C(F)(F)F)CC3)ccc2c1` [Example 260, (R)-2-Amino-2-[6-(trans-4-trifluoromethyl-cyclohexyloxy)-naphthalen-2-yl]-propan-1-ol] showed an ED50 of 0.5 to 5 mg/kg.
Turning to `C[C@](N)(CO)c1ccc2c(C(F)(F)F)c(O[C@H]3CC[C@H](C(F)(F)F)CC3)ccc2c1` [Example 266, (R)-2-Amino-2-[5-trifluoromethyl-6-(trans-4-trifluoromethylcyclohexyloxy)-naphthalen-2-yl]propan-1-ol], the ED50 was < 0.5 mg/kg.
The same measure, in the same setting: for `CC(F)(F)[C@H]1CC[C@H](Oc2ccc3cc([C@@](C)(N)CO)ccc3c2)CC1` [Example 299, (R)-2-amino-2-(6-(trans-4-(1,1-difluoroethyl)cyclohexyloxy)naphthalen-2-yl)propan-1-ol] the value was < 0.5 mg/kg; for `CCC(F)(F)[C@H]1CC[C@H](Oc2ccc3cc([C@@](C)(N)CO)ccc3c2)CC1` [Example 305, (R)-2-amino-2-(6-(trans-4-(1,1-difluoropropyl)cyclohexyloxy)naphthalen-2-yl)propan-1-ol], < 0.5 mg/kg; for `CCCC(F)(F)[C@H]1CC[C@H](Oc2ccc3cc([C@@](C)(N)CO)ccc3c2)CC1` [Example 311, (R)-2-amino-2-(6-(trans-4-(1,1-difluorobutyl)cyclohexyloxy)naphthalen-2-yl)propan-1-ol], < 0.5 mg/kg.
Still for that read-out and setting: for `CC(F)(F)[C@H]1CC[C@@H](Oc2ccc3cc([C@@](C)(N)CO)ccc3c2)CC1` [Example 319, (R)-2-amino-2-(6-(cis-4-(1,1-difluoroethyl)cyclohexyloxy)naphthalen-2-yl)propan-1-ol] the value was > 5 mg/kg; for `CCC(F)(F)[C@H]1CC[C@@H](Oc2ccc3cc([C@@](C)(N)CO)ccc3c2)CC1` [Example 325, (R)-2-amino-2-(6-(cis-4-(1,1-difluoropropyl)cyclohexyloxy)naphthalen-2-yl)propan-1-ol], > 5 mg/kg.
Consider `CCCC(F)(F)[C@H]1CC[C@@H](Oc2ccc3cc([C@@](C)(N)CO)ccc3c2)CC1` [Example 331, (R)-2-amino-2-(6-(cis-4-(1,1-difluorobutyl)cyclohexyloxy)naphthalen-2-yl)propan-1-ol], for which the ED50 was > 5 mg/kg.
Still for that read-out and setting: the figure for `CC(F)(F)[C@H]1CC[C@H](Oc2ccc3cc([C@@](C)(N)CO)ccc3c2C(F)(F)F)CC1` [Example 334, (R)-2-amino-2-(6-(trans-4-(1,1-difluoroethyl)cyclohexyloxy)-5-(trifluoromethyl)naphthalen-2-yl)propan-1-ol] is < 0.5 mg/kg.
Turning to `CCC(F)(F)[C@H]1CC[C@H](Oc2ccc3cc([C@@](C)(N)CO)ccc3c2C(F)(F)F)CC1` [Example 337, (R)-2-amino-2-(6-(trans-4-(1,1-difluoropropyl)cyclohexyloxy)-5-(trifluoromethyl)naphthalen-2-yl)propan-1-ol], the ED50 is < 0.5 mg/kg.

The target of the next experiment is T1, human S1P3 receptor. The experiment in a line: Calcium mobilization assay, antagonist activity at human S1P3. The format is cell-based. The conditions noted are these: recombinant CHEM cells expressing human S1P3, FLIPR Calcium 4 dye (FIG. 10, FIG. 11). On the procedure:
as §1
In general terms: A change in cytosolic calcium serves as a functional read-out for many receptors and channels.
For the compound `CC(C)(C)[C@H]1CC[C@H](Oc2ccc3cc(C(N)(COP(=O)(O)O)COP(=O)(O)O)ccc3c2C(F)(F)F)CC1` [Example 61A, 2-amino-2-[6-(trans-4-tert-butylcyclohexyloxy)-5-trifluoromethyl-naphthalen-2-yl]-propane-1,3-diphosphoric acid], the S1P3 antagonist activity entry is reported as “do not antagonize the S1P3 receptor”.
